Experimental data from patent publication US20210395313A1, “PEPTIDE PAC1 ANTAGONISTS” (AMGEN INC., priority 2017, published 2021).
Where a SMILES comes first, the peptide text is derived from it. Bridges are numbered along the chain shown (N, C = ends). Where no end group is shown, it is not given here. [ ]: non-standard residue; d: D form. Pra = C#CC[C@H](N)C(=O)O

Experiments:
[1] = target: T1, human PAC1 receptor (Homo sapiens, UniProt P41586); assay: LANCE Ultra cAMP accumulation antagonist assay in SHSY-5Y cells; assay type: cell-based;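 further: inhibition of cAMP accumulation evoked by PAC1 agonist at its EC80 in SHSY-5Y cells endogenously expressing receptor, 30 min preincubation then 15 min agonist, TR-FRET readout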
T1 construct: SHSY-5Y (human neuroblastoma cell line) and RG-2 (rat glioma cell line) cells endogenously express human and rat PAC1 receptors, respectively; endogenous in cells; host or cells: SHSY-5Y human neuroblastoma cells
T1 sequence (P41586 21-468): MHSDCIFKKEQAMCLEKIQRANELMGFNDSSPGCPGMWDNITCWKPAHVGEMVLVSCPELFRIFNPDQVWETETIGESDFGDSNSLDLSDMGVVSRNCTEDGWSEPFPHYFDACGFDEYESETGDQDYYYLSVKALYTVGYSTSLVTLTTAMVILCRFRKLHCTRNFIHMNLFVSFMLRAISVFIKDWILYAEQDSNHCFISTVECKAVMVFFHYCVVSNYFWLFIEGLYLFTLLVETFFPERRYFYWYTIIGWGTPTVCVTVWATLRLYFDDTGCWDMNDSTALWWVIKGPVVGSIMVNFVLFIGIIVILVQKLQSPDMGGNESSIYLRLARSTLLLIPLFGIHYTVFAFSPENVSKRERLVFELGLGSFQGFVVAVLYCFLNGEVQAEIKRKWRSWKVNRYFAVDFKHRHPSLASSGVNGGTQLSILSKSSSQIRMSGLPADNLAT

[2] = target: T2, rat PAC1 receptor (Rattus norvegicus, UniProt P32215); assay: LANCE Ultra cAMP accumulation antagonist assay in RG-2 cells; assay type: cell-based;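 further: RG-2 rat glioma cells endogenously expressing PAC1, test peptide preincubated 30 min, then PAC1 agonist added at its EC80 for 15 min, cAMP accumulation read by LANCE Ultra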
T2 construct: SHSY-5Y (human neuroblastoma cell line) and RG-2 (rat glioma cell line) cells endogenously express human and rat PAC1 receptors, respectively; endogenous in cells; host or cells: RG-2 rat glioma cells
T2 sequence (P32215 20-523): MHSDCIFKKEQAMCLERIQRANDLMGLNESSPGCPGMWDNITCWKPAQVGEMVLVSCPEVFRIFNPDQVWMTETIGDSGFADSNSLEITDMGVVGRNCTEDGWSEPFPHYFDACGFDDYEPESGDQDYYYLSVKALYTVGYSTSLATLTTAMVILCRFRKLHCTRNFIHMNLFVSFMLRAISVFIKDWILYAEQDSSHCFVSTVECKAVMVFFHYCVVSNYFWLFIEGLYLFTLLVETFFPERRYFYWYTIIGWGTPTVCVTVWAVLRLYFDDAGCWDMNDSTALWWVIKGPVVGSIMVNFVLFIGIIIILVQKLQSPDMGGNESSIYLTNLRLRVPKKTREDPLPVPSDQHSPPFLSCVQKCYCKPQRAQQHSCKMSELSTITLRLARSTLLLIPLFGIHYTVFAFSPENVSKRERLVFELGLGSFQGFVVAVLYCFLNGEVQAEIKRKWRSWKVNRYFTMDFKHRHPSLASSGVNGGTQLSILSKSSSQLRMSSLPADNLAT

| Compound | IC50 [1] [nM] | IC50 [2] [nM] |
| --- | --- | --- |
| CC[C@H](C)[C@H](NC(=O)[C@H](C)NC(=O)[C@H](CCCCN)NC(=O)[C@H](CCCNC(=N)N)NC(=O)[C@H](Cc1ccccc1)NC(=O)[C@H](CCC(N)=O)NC(=O)[C@@H]1CSSC[C@H](N)C(=O)N[C@@H](CC(=O)O)C(=O)N[C@@H](C)C(=O)N[C@@H]([C@@H](C)O)C(=O)N1)C(=O)N[C@@H](CC(=O)O)C(=O)N[C@@H](CC(=O)O)C(=O)N[C@H]1CSSC[C@@H](C(=O)N[C@@H](CCSC)C(=O)N[C@@H](CCCCN)C(=O)N[C@@H](CCC(N)=O)C(=O)N[C@@H](CCCCN)C(=O)N[C@@H](CCCCN)C(=O)N[C@@H](CCCCN)C(=O)N[C@@H](CCC(=O)O)C(=O)N[C@@H](Cc2ccccc2)C(=O)N[C@@H](CCCCN)C(=O)N[C@@H](C)C(=O)NCC(N)=O)NC(=O)[C@H](C)NC(=O)[C@H](CCCCN)NC(=O)[C@H](Cc2ccccc2)NC(=O)[C@H](CO)NC(=O)[C@H](CO)NC(=O)[C@H](Cc2c[nH]cn2)NC(=O)[C@H](Cc2c[nH]c3ccccc23)NC(=O)[C@H](CO)NC(=O)[C@H](CCCNC(=N)N)NC(=O)[C@H](Cc2ccc(O)cc2)NC(=O)[C@H](Cc2ccc(O)cc2)NC1=O [compound 63] (H-CDATCQFRKAIDDCYYRSWHSSFKACMKQKKKEFKAG-NH2; disulfide 1-5, 14-26) | 0.01 to 1 | 0.01 to 1 |
| CDATCQFRKAIDDCDRQAHHSNVPGSVFKACMKQKKKEWKAG (disulfide 1-5, 14-31) [compound 81] | 1 to 100 | 0.01 to 1 |
| CDATCQFRKAIDDCAHRAWHSNVPGSVFKLCMKQKKKEWKAGH-NH2 (disulfide 1-5, 14-31) [compound 424] | 0.01 to 1 | 0.01 to 1 |
| CDATCQFRKAIDDCARQAHHSNVPGSVFKACMKQKKKEFKAG-NH2 (disulfide 1-5, 14-31) [compound 17] | 0.01 to 1 | < 0.01 |
| CDATCQFRKAIDDCVRQAHHSNVPGSVFKACMKQKKKEWKAGH (disulfide 1-5, 14-31) [SEQ ID NO 156] | 0.01 to 1 | 0.01 to 1 |
| CDATCQFRKAIDDCQKQAHHSNVPGSVFKLCMKQKKKEFKAG-NH2 (disulfide 1-5, 14-31) [compound 226] | 0.01 to 1 | 0.01 to 1 |
| CDATCQFRKAIDDCARQAHHSNVPGSVFKACLKQKKKEWKAGH (disulfide 1-5, 14-31) [compound 41] | 0.01 to 1 | 0.01 to 1 |
| CDATCQFRKAIDDCDRQAHHSNVPGSVFKACMKQKKKEWKAN-NH2 (disulfide 1-5, 14-31) [compound 158] | 0.01 to 1 | 0.01 to 1 |
| CC[C@H](C)[C@H](NC(=O)[C@H](C)NC(=O)[C@H](CCCCN)NC(=O)[C@H](CCCNC(=N)N)NC(=O)[C@H](Cc1ccccc1)NC(=O)[C@H](CCC(N)=O)NC(=O)[C@@H]1CSSC[C@H](N)C(=O)N[C@@H](CC(=O)O)C(=O)N[C@@H](C)C(=O)N[C@@H]([C@@H](C)O)C(=O)N1)C(=O)N[C@@H](CC(=O)O)C(=O)N[C@@H](CC(=O)O)C(=O)N[C@H]1CSSC[C@@H](C(=O)N[C@@H](CCSC)C(=O)N[C@@H](CCCCN)C(=O)N[C@@H](CCC(N)=O)C(=O)N[C@@H](CCCCN)C(=O)N[C@@H](CCCCN)C(=O)N[C@@H](CCCCN)C(=O)N[C@@H](CCC(=O)O)C(=O)N[C@@H](Cc2c[nH]c3ccccc23)C(=O)N[C@@H](CCCCN)C(=O)N[C@@H](C)C(=O)NCC(=O)N[C@@H](Cc2c[nH]cn2)C(=O)O)NC(=O)[C@H](C)NC(=O)[C@H](CCCCN)NC(=O)[C@H](Cc2ccccc2)NC(=O)[C@H](C(C)C)NC(=O)[C@H](CO)NC(=O)[C@H](CO)NC(=O)[C@H](Cc2c[nH]cn2)NC(=O)[C@H](Cc2c[nH]c3ccccc23)NC(=O)[C@H](CO)NC(=O)[C@H](CCCNC(=N)N)NC(=O)[C@H](Cc2ccc(O)cc2)NC(=O)[C@H](Cc2ccc(O)cc2)NC1=O [compound 72] (H-CDATCQFRKAIDDCYYRSWHSSVFKACMKQKKKEWKAGH-OH; disulfide 1-5, 14-27) | 0.01 to 1 | 0.01 to 1 |
| CDATCQFRKAIDDCQ[Pra]QAHHSNVPGSVFKACMKQKKKEFKAG-NH2 (disulfide 1-5, 14-31) [compound 33] | 1 to 100 | 0.01 to 1 |
| CDATCQFRKAIDDCFTWAWHSNVPGSVFKACMKQKKKEFKAG-NH2 (disulfide 1-5, 14-31) [compound 74] | 0.01 to 1 | 0.01 to 1 |
| CC[C@H](C)[C@H](NC(=O)[C@H](C)NC(=O)[C@H](CCCCN)NC(=O)[C@H](CCCNC(=N)N)NC(=O)[C@H](Cc1ccccc1)NC(=O)[C@H](CCC(N)=O)NC(=O)[C@@H]1CSSC[C@H](N)C(=O)N[C@@H](CC(=O)O)C(=O)N[C@@H](C)C(=O)N[C@@H]([C@@H](C)O)C(=O)N1)C(=O)N[C@@H](CC(=O)O)C(=O)N[C@@H](CC(=O)O)C(=O)N[C@H]1CSSC[C@@H](C(=O)N[C@@H](CCSC)C(=O)N[C@@H](CCCCN)C(=O)N[C@@H](CCC(N)=O)C(=O)N[C@@H](CCCCN)C(=O)N[C@@H](CCCCN)C(=O)N[C@@H](CCCCN)C(=O)N[C@@H](CCC(=O)O)C(=O)N[C@@H](Cc2c[nH]c3ccccc23)C(=O)N[C@@H](CCCCN)C(=O)N[C@@H](C)C(=O)NCC(=O)N[C@@H](Cc2c[nH]cn2)C(=O)O)NC(=O)[C@H](C)NC(=O)[C@H](CCCCN)NC(=O)[C@H](Cc2ccccc2)NC(=O)[C@H](C(C)C)NC(=O)[C@H](CO)NC(=O)[C@H](CO)NC(=O)[C@H](Cc2c[nH]cn2)NC(=O)[C@H](Cc2c[nH]cn2)NC(=O)[C@H](C)NC(=O)[C@H](CCC(N)=O)NC(=O)[C@H](CCCCN)NC(=O)[C@H](C)NC1=O [compound 26] (H-CDATCQFRKAIDDCAKQAHHSSVFKACMKQKKKEWKAGH-OH; disulfide 1-5, 14-27) | 0.01 to 1 | 0.01 to 1 |
| CDATCQFRKAIDDCQKQAHHSNVPGSVFKACMKQKKKEFKAW (disulfide 1-5, 14-31) [compound 95] | 1 to 100 | 1 to 100 |
| CDATCQYRKGLVACLYKKVAMQKRYSVFKACMKQKKKEFKAG-NH2 (disulfide 1-5, 14-31) [compound 46] | 1 to 100 | 0.01 to 1 |
| CDATCQFRKAIDDCYYRSWHANVPGSVFKACMKQKKKEWKAGY (disulfide 1-5, 14-31) [compound 66] | 0.01 to 1 | 0.01 to 1 |
| CC[C@H](C)[C@H](NC(=O)[C@H](C)NC(=O)[C@H](CCCCN)NC(=O)[C@H](CCCNC(=N)N)NC(=O)[C@H](Cc1ccccc1)NC(=O)[C@H](CCC(N)=O)NC(=O)[C@@H]1CSSC[C@H](N)C(=O)N[C@@H](CC(=O)O)C(=O)N[C@@H](C)C(=O)N[C@@H]([C@@H](C)O)C(=O)N1)C(=O)N[C@@H](CC(=O)O)C(=O)N[C@@H](CC(=O)O)C(=O)N[C@H]1CSSC[C@@H](C(=O)N[C@@H](CCSC)C(=O)N[C@@H](CCCCN)C(=O)N[C@@H](CCC(N)=O)C(=O)N[C@@H](CCCCN)C(=O)N[C@@H](CCCCN)C(=O)N[C@@H](CCCCN)C(=O)N[C@@H](CCC(=O)O)C(=O)N[C@@H](Cc2c[nH]c3ccccc23)C(=O)N[C@@H](CCCCN)C(=O)N[C@@H](C)C(=O)NCC(=O)N[C@@H](Cc2c[nH]cn2)C(=O)O)NC(=O)[C@H](C)NC(=O)[C@H](CCCCN)NC(=O)[C@H](Cc2ccccc2)NC(=O)[C@H](C(C)C)NC(=O)[C@H](CO)NC(=O)[C@H](CO)NC(=O)[C@H](Cc2c[nH]cn2)NC(=O)[C@H](Cc2c[nH]cn2)NC(=O)[C@H](C)NC(=O)[C@H](CCC(N)=O)NC(=O)[C@H](CCCNC(=N)N)NC(=O)[C@H](C)NC1=O [compound 28] (H-CDATCQFRKAIDDCARQAHHSSVFKACMKQKKKEWKAGH-OH; disulfide 1-5, 14-27) | 0.01 to 1 | 0.01 to 1 |
| CDATCQFRKAIDDCHLLAWHANVPGSVFKACMKQKKKEFKAG-NH2 (disulfide 1-5, 14-31) [compound 140] | 0.01 to 1 | 0.01 to 1 |
| CDATCQFRKAIDDCQRQAHHSNVPGNSVFKECMKQKKKEFK-NH2 (disulfide 1-5, 14-32) [compound 288] | 1 to 100 | 1 to 100 |
| CDATCQFRKAIDDCQKQAHHSNVPGSVFKACMKFRRTLWKAG-NH2 (disulfide 1-5, 14-31) [compound 89] | 1 to 100 | 0.01 to 1 |
| CDATCQFRKAIDDCYYRSWHSNVPGSVFKACMKQKKKEFKAG-NH2 (disulfide 1-5, 14-31) [compound 149] | 0.01 to 1 | 0.01 to 1 |
